Test: Crystal form stability versus relative humidity
Assay type: physicochemical

Row | Compound | Crystal form stability (room temperature and relative humidity less than about 15%) | Crystal form stability (room temperature and relative humidity greater than about 15%)
1 | COc1cnc(C(=O)Nc2ccc(F)c([C@]34CN(c5ncc(F)cn5)C[C@H]3CSC(N)=N4)c2)cn1 [Example 1A, Crystalline Form 1 N-[3-[(4aR,7aS)-2-Amino-6-(5-fluoropyrimidin-2-yl)-4,4a,5,7-tetrahydropyrrolo[3,4-d][1,3]thiazin-7a-yl]-4-fluoro-phenyl]-5-methoxy-pyrazine-2-carboxamide] | stable crystal form | –
2 | COc1cnc(C(=O)Nc2ccc(F)c([C@]34CN(c5ncc(F)cn5)C[C@@H]3CN=C(N)S4)c2)cn1.O [Example 1B, Crystalline Form 2 N-[3-[(4aR,7aS)-2-Amino-6-(5-fluoropyrimidin-2-yl)-4,4a,5,7-tetrahydropyrrolo[3,4-d][1,3]thiazin-7a-yl]-4-fluoro-phenyl]-5-methoxy-pyrazine-2-carboxamide (hydrated)] | – | stable crystal form

Source: US9828390B2, “Tetrahydropyrrolo[3,4-D][1,3]thiazine-derivative as BACE inhibitor” (Eli Lilly and Company, priority 2014, dated 2017)
